The text below walks through data of PubChem BioAssay AID2842 (Southern Research Institute, 2010).

In the assay the test system is M. tuberculosis H37Rv growth inhibition. Put plainly: Mycobacterium tuberculosis H37Rv growth inhibition, putative kinase inhibitor library, confirmatory dose response (AID 2842).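 Further: bacteria incubated one week before Alamar blue readout.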

Converted amounts (≈) assume the structure as drawn.

Consider `Cc1cc(C)c2nc(NNC(=O)c3cc(-c4cccs4)nc4ccccc34)sc2c1`, for which the IC90 was 24.6 µg/mL (≈ 57.2 µM).

In the case of `COc1ccc(-c2nnc(NC(=O)c3cc4ccccc4cc3OC)o2)cc1`, the IC90 was 26.3 µg/mL (≈ 70.2 µM).

Consider `O=C(Nc1nnc(-c2ccc3c(c2)OCCO3)o1)c1nc2ccccc2s1`, for which the IC90 is 25.8 µg/mL (≈ 67.9 µM).

Consider `COc1cccc2sc(N(CCCn3ccnc3)C(=O)c3ccc4c(c3)OCCO4)nc12`, for which the 90% effect concentration (IC90) was 6.56 µg/mL (≈ 14.6 µM).

In the case of `CCOC(=O)c1cnc2ccc(OCC)cc2c1Nc1ccccc1C`, the 90% effect concentration (IC90) is 8.82 µg/mL (≈ 25.2 µM).

`O=C(CSc1nnc(-c2cccnc2)o1)N1CCC(Cc2ccccc2)CC1`: the 90% effect concentration (IC90) was 0.87 µg/mL (≈ 2.21 µM).

In the case of `COc1cccc2sc(Nc3nc4c(s3)C(=O)CC(C)(C)C4)nc12`, the IC90 was 7.52 µg/mL (≈ 20.9 µM).

In the case of `Cc1ccc(-c2nnc(NC(=O)c3ccc(Cl)s3)o2)c(C)c1`, the IC90 is 2.01 µg/mL (≈ 6.02 µM).

Take `CC(C)CCNC(=O)c1c(O)nc2sccn2c1=O`: the IC90 was 13.1 µg/mL (≈ 46.6 µM).

For `O=C(Nc1nnc(-c2ccccc2)o1)c1cc(-c2cccs2)nc2ccccc12`, the IC90 was 0.72 µg/mL (≈ 1.81 µM).

For `COc1cccc(-c2nnc(SCC(=O)Nc3cc(C)on3)o2)c1`, the IC90 is 3.26 µg/mL (≈ 9.41 µM).

In the case of `CCC(=O)Nc1nnc(-c2cc(Cl)ccc2Cl)o1`, the 90% effect concentration (IC90) was 30.1 µg/mL (≈ 105 µM).

Regarding `Clc1cccc(N2CCN(c3nc(Nc4ccccc4)c4nccnc4n3)CC2)c1`, the 90% effect concentration (IC90) is 4.58 µg/mL (≈ 11 µM).

Turning to `O=C(Nc1nnc(-c2ccc3c(c2)CCCC3)o1)C1=COCCO1`, the IC90 was 9.82 µg/mL (≈ 30 µM).

As to `O=C(Nc1nnc(-c2cccs2)o1)c1ccco1`, the concentration for an effect of 90% (IC90) is 3.41 µg/mL (≈ 13.1 µM).

As for `O=C(/C=C/c1cccs1)N(CCCn1ccnc1)c1nc2ccccc2s1`, the IC90 is 1.43 µg/mL (≈ 3.62 µM).

On to `CSc1ccccc1-c1nnc(NC(=O)c2cc(Cl)sc2Cl)o1`, for which the concentration for an effect of 90% (IC90) was 11.7 µg/mL (≈ 30.2 µM).

`O=C(Nc1nc2c(s1)CCc1ccccc1-2)c1cccc(Br)c1`: the 90% effect concentration (IC90) is 16.8 µg/mL (≈ 43.6 µM).

In the case of `O=C(Nc1nnc(-c2cc(Cl)ccc2Cl)o1)c1ccco1`, the IC90 is 27.5 µg/mL (≈ 84.8 µM).

On to `O=C(Cc1ccccc1)Nc1nnc(-c2ccc(F)cc2)o1`, for which the 90% effect concentration (IC90) was 8.35 µg/mL (≈ 28.1 µM).

Consider `COc1cccc(C(=O)Nc2nnc(-c3ccc(C)cc3C)o2)c1`, for which the IC90 is 20.8 µg/mL (≈ 64.2 µM).

`Cc1ccc(C(=O)Nc2nnc(-c3ccc(C)cc3C)o2)c(C)c1`: the 90% effect concentration (IC90) is 3.99 µg/mL (≈ 12.4 µM).

With `O=C(Nc1nnc(-c2ccco2)o1)c1ccc(Oc2ccccc2)cc1`, the IC90 is less than 0.2 µg/mL.

As for `Cc1ccc(-n2ccnc(NCC(C)c3ccccc3)c2=O)cc1C` (stereo unspecified), the IC90 is 18.1 µg/mL (≈ 54.4 µM).

On to `CC1(C)Cc2c(sc(NC(=O)c3ccc(Cc4ccccc4)cc3)c2C(N)=O)C(C)(C)N1`, for which the 90% effect concentration (IC90) is 10.4 µg/mL (≈ 23.3 µM).

In the case of `CCOC(=O)N1CCc2c(sc(NC(=O)c3ccc(Oc4ccccc4)cc3)c2C(N)=O)C1`, the IC90 is 0.98 µg/mL (≈ 2.11 µM).

As for `N=C1SCC(=O)N1c1ncc(Cc2cccc(Cl)c2)s1`, the IC90 is 2.11 µg/mL (≈ 6.52 µM).

With `CCN1CCc2c(sc(NC(=O)c3sc4ccccc4c3Cl)c2C(N)=O)C1`, the IC90 is 10.6 µg/mL (≈ 25.2 µM).

Take `N#Cc1ccccc1NC(=O)C(=O)NCCSc1ncc(-c2ccccc2)[nH]1`: the IC90 was 4.48 µg/mL (≈ 11.4 µM).

On to `CCOC(=O)/C=C/CSc1nc2sc3c(c2c(=O)[nH]1)CCCC3`, for which the IC90 was 12.8 µg/mL (≈ 36.6 µM).

Consider `Cc1ccc(Nc2nc(N3CCN(Cc4ccccc4)CC3)nc3nccnc23)cc1Cl`, for which the IC90 was 2.67 µg/mL (≈ 5.99 µM).

Take `CCOc1ccc2nc(N(CCCn3ccnc3)C(=O)c3cccs3)sc2c1`: the 90% effect concentration (IC90) is 3.43 µg/mL (≈ 8.31 µM).

On to `CC(=O)c1ccc(C(=O)Nc2nnc(-c3cc(Cl)ccc3Cl)o2)cc1`, for which the 90% effect concentration (IC90) was 94.4 µg/mL (≈ 251 µM).

Regarding `CCCCOc1ccc(C(=O)Nc2nnc(-c3ccco3)o2)cc1`, the IC90 is 0.8 µg/mL (≈ 2.44 µM).

As to `OCc1nc2ccccc2n1CC(O)COc1ccc(Br)cc1` (stereo unspecified), the 90% effect concentration (IC90) was 10.2 µg/mL (≈ 27 µM).

As for `COc1ccc2c(c1)c(=O)c(C(=O)c1ccc(C)cc1)cn2Cc1cccc(C)c1`, the IC90 is 6.97 µg/mL (≈ 17.5 µM).

As to `O=C(Nc1nnc(-c2cc(Cl)ccc2Cl)o1)C1CC1`, the IC90 is 7.42 µg/mL (≈ 24.9 µM).

On to `O=C(Cc1ccc(F)cc1)N(CCCn1ccnc1)c1nc2ccc(F)cc2s1`, for which the IC90 is 3.39 µg/mL (≈ 8.22 µM).

For `CCOC(=O)CNC(=O)CSc1ncnc2c1nnn2Cc1ccccc1F`, the 90% effect concentration (IC90) is 3.38 µg/mL (≈ 8.36 µM).

In the case of `CC(C)(C)c1ccc(C(=O)Nc2nnc(-c3ccncc3)o2)cc1`, the 90% effect concentration (IC90) is 1.18 µg/mL (≈ 3.66 µM).

For `CC(=O)N1CCc2c(sc(NC(=O)c3cccc(C)c3)c2C(N)=O)C1`, the concentration for an effect of 90% (IC90) is 17.1 µg/mL (≈ 47.8 µM).

In the case of `CCSc1ccc(CC(=O)Nc2nnc(-c3ccc4c(c3)OCCO4)o2)cc1`, the IC90 was 3.57 µg/mL (≈ 8.98 µM).

As for `Cc1ccc(NCCCn2c(C)c(C)n3c4c(=O)[nH]c(=O)n(C)c4nc23)c(C)c1`, the 90% effect concentration (IC90) is 14.3 µg/mL (≈ 36.2 µM).

For `O=C(Nc1cccc(-c2ccc3nnc(-c4cccnc4)n3n2)c1)c1ccc(F)cc1F`, the 90% effect concentration (IC90) is 27.6 µg/mL (≈ 64.5 µM).

Turning to `Cc1ccc(C)c(-c2nnc(NC(=O)C3COc4ccccc4O3)o2)c1` (stereo unspecified), the concentration for an effect of 90% (IC90) was 1.18 µg/mL (≈ 3.36 µM).

In the case of `O=C(Nc1nnc(-c2cc(Cl)ccc2Cl)o1)c1c(F)cccc1F`, the 90% effect concentration (IC90) was 3.48 µg/mL (≈ 9.4 µM).

In the case of `OCc1cn(-c2ccccc2)nc1-c1ccc(F)cc1`, the 90% effect concentration (IC90) was 6.38 µg/mL (≈ 23.8 µM).

Consider `COc1ccc2nc(Nc3nc(C(C)(C)C)cs3)sc2c1`, for which the IC90 is 10.1 µg/mL (≈ 31.7 µM).

For `O=C(OCc1nc2ccccc2s1)c1ccc(C(=O)c2ccccc2)cc1`, the concentration for an effect of 90% (IC90) was 17.3 µg/mL (≈ 46.2 µM).

With `O=C(Nc1nnc(-c2cc(Cl)ccc2Cl)o1)c1cc(-c2ccccc2)nc2ccccc12`, the IC90 is 1.96 µg/mL (≈ 4.25 µM).

On to `O=C(Nc1nnc(-c2ccncc2)o1)c1cccc(C(F)(F)F)c1`, for which the 90% effect concentration (IC90) is 28.1 µg/mL (≈ 84.2 µM).

In general, IC90 refers to the concentration at which the effect reaches the 90% level.
